Broadly, the MIC is the least concentration at which growth counts as inhibited. A higher MIC goes with weaker potency.

This note sets out measurements from patent publication US6407288B1, “Naphthylsalicylanilides as antimicrobial and antiinflammatory agents” (The Research Foundation of State University of New York, priority 2000, dated 2002).

For one test, the system named is S. aureus. The experiment in a line: MIC microdilution, gram positive. In kind it is cell-based, Staphlococcus aureus. To be noted: for MIC: Staphylococcus aureus. The method, boiled down:
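Broth microdilution (modified NCCLS M7-A4): BHI for aerobes, supplemented half-strength BHI under 5% CO2/10% H2/N2 for anaerobes; 10 μL of ~1×10^8 CFU/mL inoculum; drugs 50 to 0.05 μg/assay from DMSO stock. Duplicates incubated 24–48 h; MIC = lowest concentration without visible growth. Staphylococcus R: coagulase-negative clinical isolate 00-045-1209.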
On the technique in general: In broth dilution the organism is exposed to a series of concentrations in liquid medium.

A further test concerns S. mutans. The test can be described thus: MIC microdilution, gram positive. In kind it is cell-based, Streptococcus mutans. As to conditions: Streptococcus mutans; Table 1, Gram Positive. The method in brief: (§1)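 Modified NCCLS broth microdilution: aerobes in full-strength BHI, anaerobes in half-strength BHI with yeast extract, hemin and menadione, each well given 10 µL of a ~1×10^8 CFU/mL inoculum. Drugs ranged 50–0.05 µg/assay, run in duplicate, incubated 24–48 h, anaerobically under 5% CO2/10% H2/N2 where needed. MIC was the lowest concentration with no visible growth.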

In a further test the test system is S. sanguis. The test can be described thus: MIC microdilution, gram positive. In kind it is cell-based, Streptococcus sanguis. To be noted: Streptococcus; Table 1, Gram Positive. The method in brief: as §1
Another test concerns S. species R. The test can be described thus: Staphylococcus MIC. As to conditions: for MIC: Staphylococcus, second Table 5 (Example 5), strain 00-045-1209. In kind it is cell-based, staphylococcus species R. The protocol: (§2) The MIC's for the compounds were determined by a modified microdilution tube dilution method described in “Methods for Dilution Antimicrobial Susceptibility Tests for Bacteria that Grow Aerobically” (National Committee for Clinical Laboratory Standards Approved Standards, 1997, NCCLS document M7-A4). In general the modifications were made because of the unique growth requirements for the fastidious oral organisms and for those bacteria that require anaerobic conditions. Reference is also made to “Methods for Antimicrobial Susceptibility of Anaerobic Bacteria” (National Committee for Clinical Laboratory Standards Approved Standards, 1997, NCCLS document M11-A4).
(§3) Briefly, the methods were as follows. Cultures were grown for 18-24hrs (aerobic bacteria) or 48-72 hrs (anaerobic bacteria) in the appropriate medium. For aerobic bacteria full strength brain heart infusion medium (BHI, Difco) was used. For anaerobic bacteria, half strength BHI (18.5 g/L) was supplemented by adding yeast extract (10 g/L), hemin (0.29 mL of a stock solution containing 0.1 g/200 mL dH2O) and menadione (15 mL of a stock solution containing 0.15 mL in 30 mL 95% EtOH) was used. Initial cultures were diluted to approximately 1×10^8 CFU/mL for use as an inoculum. Each assay received 10 μL of the inoculum. The drugs were prepared from a stock solution contained in dimethyl sulfoxide (DMSO) and diluted into the culture medium. Final concentrations of the drugs ranged from 50 to 0.05 μg/assay. The tests were run in duplicate and were incubated appropriately with regard to oxygen requirements for 24 to 48 hrs as required. Anaerobic incubation was an atmosphere of 5% CO2, 10% H2, with the balance N2. The lowest concentration of an antimicrobial agent at which no visible growth is noted was referred to as the MIC.
This embodiment describes the sensitivity of various staphylococcus strains to the compounds of the present invention. The staphylococcus species R is a strain 00-045-1209 from the Children's Hospital in Buffalo. It was isolated from the peritoneal cavity (fluid culture) of an individual. It was coagulase negative. The sensitivity of this strain was tested agaisnt several known antibiotics.

A further test has as its system Lact 7496. The experiment in a line: MIC microdilution, gram positive. To be noted: Lacticaseibacillus rhamnosus, 7496; Table 2, Gram Positive. In kind it is cell-based, Lactobacillus rhamnosus (casei). How it is done:
(§4) The MIC's for the compounds were determined by a modified microdilution tube dilution method described in “Methods for Dilution Antimicrobial Susceptibility Tests for Bacteria that Grow Aerobically” (National Committee for Clinical Laboratory Standards Approved Standards, 1997, NCCLS document M7-A4). In general the modifications were made because of the unique growth requirements for the fastidious oral organisms and for those bacteria that require anaerobic conditions. Reference is also made to “Methods for Antimicrobial Susceptibility of Anaerobic Bacteria” (National Committee for Clinical Laboratory Standards Approved Standards, 1997, NCCLS document M11-A4). Briefly, the methods were as follows. Cultures were grown for 18-24hrs (aerobic bacteria) or 48-72 hrs (anaerobic bacteria) in the appropriate medium. For aerobic bacteria full strength brain heart infusion medium (BHI, Difco) was used. For anaerobic bacteria, half strength BHI (18.5 g/L) was supplemented by adding yeast extract (10 g/L), hemin (0.29 mL of a stock solution containing 0.1 g/200 mL dH2O) and menadione (15 mL of a stock solution containing 0.15 mL in 30 mL 95% EtOH) was used. Initial cultures were diluted to approximately 1×10^8 CFU/mL for use as an inoculum. Each assay received 10 μL of the inoculum. The drugs were prepared from a stock solution contained in dimethyl sulfoxide (DMSO) and diluted into the culture medium. Final concentrations of the drugs ranged from 50 to 0.05 μg/assay. The tests were run in duplicate and were incubated appropriately with regard to oxygen requirements for 24 to 48 hrs as required. Anaerobic incubation was an atmosphere of 5% CO2, 10% H2, with the balance N2. The lowest concentration of an antimicrobial agent at which no visible growth is noted was referred to as the MIC.

The next test deals with A. viscosus. The test can be described thus: MIC microdilution, gram positive. In kind it is cell-based, Actinomyces viscosus. To be noted: Actinomyces viscosus; Table 2, Gram Positive. The method, boiled down: as §1
In the next test the test system is S.salivarius. The experiment in a line: MIC microdilution, gram positive. In kind it is cell-based, Streptococcus salivarius. As to conditions: Streptococcus salivarius; Table 1, Gram Positive. The method in brief:
as §1

The test system of the next test is S. aureus R2. The experiment in a line: Staphylococcus MIC. In kind it is cell-based. To be noted: second Table 5 (Example 5), strain 00-42-1066. How it is done: as §2, §3
The S.aureus R2 species is a strain 00-42-1066 from the Children's Hospital in Buffalo. It was isolated from a wound in an individual. It was […]. The sensitivity of this strain was tested agaisnt several known antibiotics.

For a further test, the system named is M. luteus. The test can be described thus: MIC microdilution, gram positive. In kind it is cell-based, Micrococcus luteus. To be noted: Micrococcus luteus; Table 2, Gram Positive. The protocol: as §4

Structures are written as SMILES. In brackets after ≈: the same amount, converted by molar mass.

On to `N#Cc1cccc(NC(=O)c2cc(C(=O)c3cccc4ccccc34)ccc2O)c1` [NA1mC], for which the MIC was 12.5 µg/mL (≈ 31.9 µM) against S. aureus (second Table 5 (Example 5)); 3.1 µg/mL (≈ 7.9 µM) in the test with S. mutans; 6.3 µg/mL (≈ 16.1 µM) against S. sanguis; 25 µg/mL (≈ 63.7 µM) against S. species R; 3.1 µg/mL (≈ 7.9 µM) with Lact 7496; 3.2 µg/mL (≈ 8.15 µM) against A. viscosus. Further, the MIC worked out at 50 µg/mL (≈ 127 µM) against S.salivarius, 6.3 µg/mL (≈ 16.1 µM) with S. aureus R2 and 3.1 µg/mL (≈ 7.9 µM) with M. luteus.

Regarding `O=C(c1ccc(-c2ccccc2)cc1)c1ccc(O)c(C(=O)Nc2cccc(C(F)(F)F)c2)c1` [BPAmF, reference compound], the MIC with S. aureus (Table 2, Gram Positive) was more than 50 µg/mL; in the test with S. mutans, more than 50 µg/mL; in the test with S. sanguis, more than 50 µg/mL; against S. species R it was more than 50 µg/mL; against Lact 7496, 6.3 µg/mL (≈ 13.7 µM); against A. viscosus, more than 50 µg/mL. Also, the minimum inhibitory concentration (MIC) was more than 50 µg/mL in the test on S.salivarius, more than 50 µg/mL with S. aureus R2 and 3.1 µg/mL (≈ 6.72 µM) in the test on M. luteus. For the same compound, in the test with S. aureus (second Table 5 (Example 5)), the “MIC S. aureus” value is reported as “NE (NE indicates that the drug was not effective at a concentration >50 micrograms/ml)”.

With `O=C(Nc1cccc(C(F)(F)F)c1)c1cc(C(=O)c2cccc3ccccc23)ccc1O` [NA1mF], the minimal inhibitory concentration (MIC) against S. aureus (second Table 5 (Example 5)) was 3.1 µg/mL (≈ 7.12 µM); against S. mutans it was 0.8 µg/mL (≈ 1.84 µM); against S. sanguis, 0.8 µg/mL (≈ 1.84 µM); in the test on S. species R, 1.6 µg/mL (≈ 3.67 µM); in the test on Lact 7496, 0.4 µg/mL (≈ 0.919 µM); against A. viscosus it was less than 0.1 µg/mL. Also, the MIC turned out to be 3.1 µg/mL (≈ 7.12 µM) in the test with S.salivarius, 1.6 µg/mL (≈ 3.67 µM) against S. aureus R2 and 0.8 µg/mL (≈ 1.84 µM) against M. luteus. The “sensitivity of staphylococcus species R to the compounds” value with S. species R (statement in text referring to Table 5) is “highest effect”.

`N#Cc1cccc(NC(=O)c2cc(C(=O)c3ccc(-c4ccccc4)cc3)ccc2O)c1` [BPAmC, reference compound]: the MIC against S. aureus (Table 2, Gram Positive) is more than 50 µg/mL; in the test with S. mutans it was more than 50 µg/mL; in the test with S. sanguis, more than 50 µg/mL; in the test on S. species R, more than 50 µg/mL; with Lact 7496, 12.5 µg/mL (≈ 29.9 µM); in the test with A. viscosus, more than 50 µg/mL. Moreover, the results for the MIC against S.salivarius, with S. aureus R2 and against M. luteus were more than 50 µg/mL, more than 50 µg/mL and 3.1 µg/mL (≈ 7.41 µM), respectively. For the same compound, the “MIC S. aureus” value with S. aureus (second Table 5 (Example 5)) was “NE (NE indicates that the drug was not effective at a concentration >50 micrograms/ml)”.

In the case of `CCCCc1ccc(C(=O)c2ccc(O)c(C(=O)Nc3cccc(C(F)(F)F)c3)c2)cc1` [BBAmF, reference compound], the MIC is more than 50 µg/mL in the test with S. aureus (Table 2, Gram Positive); more than 50 µg/mL in the test on S. mutans; more than 50 µg/mL against S. sanguis; more than 50 µg/mL in the test with S. species R; 6.3 µg/mL (≈ 14.3 µM) against Lact 7496; more than 50 µg/mL with A. viscosus. The values for the MIC with S.salivarius, with S. aureus R2 and against M. luteus were more than 50 µg/mL, more than 50 µg/mL and 3.1 µg/mL (≈ 7.02 µM), respectively. Further, in the test on S. aureus (second Table 5 (Example 5)), the “MIC S. aureus” value was “NE (NE indicates that the drug was not effective at a concentration >50 micrograms/ml)”.
